From ChEMBL document CHEMBL3044641, “Design and synthesis of some novel 3-[5-(4-substituted) phenyl-1,3,4-oxadiazole-2yl]-2-phenylquinazoline-4(3H)-ones as possible anticonvulsant agent” (Med Chem Res, 2011)
Active and inactive are the calls of the source. No cut-off for these calls is given here.

How the values were obtained:
Mus musculus [1] = assay: Anticonvulsant activity in Mus musculus albino (mouse) assessed as protection against maximal electroshock-induced seizure at 300 mg/kg, ip after 0.5 hr; type: functional, organism-based; design: dose 300 mg/kg
Mus musculus [2] = assay: Neurotoxicity in ip dosed Mus musculus albino (mouse) assessed as minimal motor impairment after 4 hr by rotarod test; type: toxicity, organism-based; conditions: in vivo
Mus musculus [3] = assay: Anticonvulsant activity in Mus musculus albino (mouse) assessed as protection against subcutaneous metrazole-induced seizure at 300 mg/kg, ip after 0.5 hr; type: functional, organism-based; design: dose 300 mg/kg
Mus musculus [4] = assay: Anticonvulsant activity in Mus musculus albino (mouse) assessed as protection against subcutaneous metrazole-induced seizure at 300 mg/kg, ip after 4 hr; type: functional, organism-based; design: dose 300 mg/kg
Mus musculus [5] = assay: Anticonvulsant activity in Mus musculus albino (mouse) assessed as protection against maximal electroshock-induced seizure at 300 mg/kg, ip after 4 hr; type: functional, organism-based; design: dose 300 mg/kg
Mus musculus [6] = assay: Neurotoxicity in ip dosed Mus musculus albino (mouse) assessed as minimal motor impairment after 0.5 hr by rotarod test; type: toxicity, organism-based; conditions: in vivo
Mus musculus [7] = assay: Anticonvulsant activity in ip dosed Mus musculus albino (mouse) assessed as protection against maximal electroshock-induced seizure after 0.5 hr; type: functional; conditions: read-out: MED
Mus musculus [8] = assay: Anticonvulsant activity in ip dosed Mus musculus albino (mouse) assessed as protection against maximal electroshock-induced seizure after 4 hr; type: functional; conditions: read-out: MED
Mus musculus [9] = assay: Neurotoxicity in Mus musculus albino (mouse) assessed as minimal motor impairment at 300 mg/kg, ip after 4 hr by rotarod test; type: toxicity, organism-based; design: dose 300 mg/kg, route intraperitoneal; conditions: in vivo
Mus musculus [10] = assay: Anticonvulsant activity in ip dosed Mus musculus albino (mouse) assessed as protection against subcutaneous metrazole-induced seizure after 0.5 hr; type: functional; conditions: read-out: MED
Mus musculus [11] = assay: Anticonvulsant activity in ip dosed Mus musculus albino (mouse) assessed as protection against subcutaneous metrazole-induced seizure after 4 hr; type: functional; conditions: read-out: MED
Mus musculus [12] = assay: Neurotoxicity in Mus musculus albino (mouse) assessed as minimal motor impairment at 300 mg/kg, ip after 0.5 hr by rotarod test; type: toxicity, organism-based; design: dose 300 mg/kg, route intraperitoneal; conditions: in vivo

COc1ccc(-c2nnc(-n3c(-c4ccccc4)nc4ccccc4c3=O)o2)cc1
Activity (Mus musculus [1]): inactive | Activity (Mus musculus [2]): 300 mg/kg | Activity (Mus musculus [3]): inactive | Activity (Mus musculus [4]): inactive | Activity (Mus musculus [5]): inactive | Activity (Mus musculus [6]): 300 mg/kg

O=c1c2ccccc2nc(-c2ccccc2)n1-c1nnc(-c2ccc(F)cc2)o1
minimal effective dose (Mus musculus [7]): 300 mg/kg | minimal effective dose (Mus musculus [8]): 300 mg/kg | Activity (Mus musculus [3]): inactive | Activity (Mus musculus [4]): inactive | Activity (Mus musculus [9]): Non-toxic | Activity (Mus musculus [6]): 300 mg/kg

NC(=O)N1c2ccccc2C=Cc2ccccc21 [CARBAMAZEPINE]
minimal effective dose (Mus musculus [7]): 30 mg/kg | Activity (Mus musculus [2]): 300 mg/kg | minimal effective dose (Mus musculus [8]): 100 mg/kg | minimal effective dose (Mus musculus [10]): 100 mg/kg | Activity (Mus musculus [6]): 100 mg/kg | minimal effective dose (Mus musculus [11]): 300 mg/kg

O=c1c2ccccc2nc(-c2ccccc2)n1-c1nnc(-c2ccccc2)o1
minimal effective dose (Mus musculus [7]): 300 mg/kg | Activity (Mus musculus [12]): Non-toxic | Activity (Mus musculus [3]): inactive | Activity (Mus musculus [4]): inactive | Activity (Mus musculus [9]): Non-toxic | Activity (Mus musculus [5]): inactive

O=C1NC(=O)C(c2ccccc2)(c2ccccc2)N1 [PHENYTOIN]
minimal effective dose (Mus musculus [7]): 30 mg/kg | Activity (Mus musculus [2]): 100 mg/kg | minimal effective dose (Mus musculus [8]): 30 mg/kg | Activity (Mus musculus [3]): inactive | Activity (Mus musculus [4]): inactive | Activity (Mus musculus [6]): 100 mg/kg

O=c1c2ccccc2nc(-c2ccccc2)n1-c1nnc(-c2ccc(Cl)cc2)o1
Activity (Mus musculus [1]): inactive | Activity (Mus musculus [12]): Non-toxic | Activity (Mus musculus [3]): inactive | Activity (Mus musculus [4]): inactive | Activity (Mus musculus [9]): Non-toxic | Activity (Mus musculus [5]): inactive

O=c1c2ccccc2nc(-c2ccccc2)n1-c1nnc(-c2ccc([N+](=O)[O-])cc2)o1
Activity (Mus musculus [1]): inactive | Activity (Mus musculus [2]): 300 mg/kg | Activity (Mus musculus [3]): inactive | Activity (Mus musculus [4]): inactive | Activity (Mus musculus [5]): inactive | Activity (Mus musculus [6]): 300 mg/kg

Cc1ccc(-c2nnc(-n3c(-c4ccccc4)nc4ccccc4c3=O)o2)cc1
Activity (Mus musculus [1]): inactive | Activity (Mus musculus [12]): Non-toxic | Activity (Mus musculus [2]): 300 mg/kg | Activity (Mus musculus [3]): inactive | Activity (Mus musculus [4]): inactive | Activity (Mus musculus [5]): inactive
